Assay results reported in US20100075907A1, “NEUROMEDIN U RECEPTOR AGONISTS AND USES THEREOF” (priority 2006, published 2010).
Non-standard residues stand in square brackets, D forms with d. Residues, ends and D or L forms follow the SMILES beside them. No end group written: not given here. *: point of attachment. X1 = CC(C)CCC[C@@H](C)[C@H]1CC[C@H]2[C@@H]3CC=C4C[C@@H](OC(=O)C*)CC[C@]4(C)[C@H]3CC[C@]12C; Succinimide(1-Et,3-yl) = CCN1C(=O)CC(*)C1=O; hArg = N=C(N)NCCCC[C@H](N)C(=O)O; dNle = CCCC[C@@H](N)C(=O)O

Tests used:
hNMUR1 = molecular target: T1, hNMUR1 (Homo sapiens, UniProt Q9HB89); assay: In vitro functional assay, HEK-hR1 cells; type: cell-based; design: expressed in transfected cells; host or cells: FLP-In CHO or HEK-293 FLP-In cells (pcDNA5); HEK-293/aeq17 lines (pIRES-puro) were also made
T1 sequence (Q9HB89 1-426): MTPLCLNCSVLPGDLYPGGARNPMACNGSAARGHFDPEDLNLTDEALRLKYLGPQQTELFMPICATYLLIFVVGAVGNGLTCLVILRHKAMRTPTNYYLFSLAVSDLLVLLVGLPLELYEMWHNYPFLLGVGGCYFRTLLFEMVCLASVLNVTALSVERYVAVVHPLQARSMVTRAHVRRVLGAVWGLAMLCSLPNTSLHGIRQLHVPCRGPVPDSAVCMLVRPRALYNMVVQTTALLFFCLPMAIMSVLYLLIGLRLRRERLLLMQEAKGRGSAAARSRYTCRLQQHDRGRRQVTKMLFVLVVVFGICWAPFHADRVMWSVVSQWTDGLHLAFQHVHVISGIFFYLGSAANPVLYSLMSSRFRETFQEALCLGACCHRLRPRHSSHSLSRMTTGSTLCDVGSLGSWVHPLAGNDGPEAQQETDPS
Text: (§1) Human, mouse or rat cDNAs encoding NMUR1 or NMUR2 (as described in Howard et al. Nature 406: 70-74 (2000) were subcloned in pcDNA5 (Invitrogen) and transfected into FLP-In CHO cells and HEK-293 FLP-In cells purchased from Invitrogen (Carlsbad, Calif.) using lipofectamine (Invitrogen). The Flp-In system allows integration and expression of a particular gene of interest at a specific genomic location utilizing the Flp recombinase from yeast. The transfected cells were selected by growth in medium containing 200 μg/mL hygromycin (Invitrogen). Populations were frozen at early passage numbers, and these stocks were used for further studies. Stable clones that expressed the mRNAs were identified functionally by FLIPR as well as by RT-PCR. […] Two different rodent NMUR1 cell lines were thus generated: one with the codon as predicted from the genomic databases and another cell line with an engineered methionine (ATG) as the start codon. Additionally, stable cell lines expressing the human receptors were generated in HEK-293/aeq17 cells which stably express the aequorin gene under the CMV promoter. The human NMUR2 cDNA was cloned into pcDNA3.1 and human NMUR1 was subcloned into pIRES-puro (Clontech, Mountain View, Calif.), after transfection cells were selected in media containing G418 and either hygromycin (NMUR2) or puromycin (NMUR1).
(§2) The NMU receptors signal primarily through Gαq/11 proteins; therefore calcium mobilization assays can be utilized for functional activity.
(§3) Stable cell lines expressing human and or rodent NMUR1 or human NMUR2 receptors were plated at a density of 12,000 cells per well overnight on poly-lysine coated 384-well black-walled plates. The following day, the media was removed from the plates and the cells were subsequently loaded with Fluo-3 (Molecular Probes), a calcium sensitive dye, diluted in FLIPR buffer (1× Hank's buffered saline containing 20 mM HEPES, 0.1% BSA, 2.5 mM probenecid (Sigma) and 1.6 mM TR40). All reagents are from Invitrogen unless otherwise noted. Peptide stocks were resuspended in DMSO at a stock concentration of 2 mM and diluted in FLIPR buffer on the day of the experiment to a 4 μM working stock solution.
(§4) After a 90 minute incubation at room-temperature, cell plates were loaded onto a FLIPR (Molecular Devices) to monitor cellular fluorescence (excitation=488 nm; emission=540 nm) before and after compound/peptide addition. Eight to twelve point dose responses were tested on NMUR-expressing cell lines using FLIPR with 1 μM peptide as the highest dose. The response after peptide addition was taken as the maximum fluorescence units minus the fluorescence immediately prior to stimulation for each well. EC50 values were calculated using GraphPad Prism (San Diego, Calif.) software.
In addition to FLIPR, NMU receptor function can also be evaluated using an aequorin assay. Stable cell lines expressing the aequorin jelly fish gene can be used to report the activation of GPCRs by monitoring intracellular calcium mobilization. The objective is to identify compounds which specifically stimulate aequorin bioluminescence. Calcium-dependent luminescence is generated by the treatment of cells with the coelenterate luciferin, coelenterazine. Briefly, confluent monolayers of HEK-293/aeq 17 cells expressing hNMUR1 or hNMUR2 are “charged” with coelenterazine (Molecular Probes, Carlsbad, Calif.). Confluent T75 flasks are rinsed with media containing 300 μM glutathione and 0.1% FBS. Cells are incubated at 37° C. for one hour in 8 mL media, 0.1% FBS, 300 μM glutathione, and 20 μM coelenterazine. T75 flasks are subsequently rinsed with 6 mL ECB buffer (140 mM NaCl, 20 mM KCl, 20 mM HEPES, 5 mM glucose, 1 mM MgCl, 1 mM CaCl2, 0.1 mg/mL BSA, PH 7.3-7.4). Cells are removed from the flask in ECB buffer, pelleted, and resuspended at a density of 2×10^5 cells/mL. Agonists are added to the cells and activity is determined using a luminometer. […]

rat NMUR2 = rat NMUR2 (Rattus norvegicus, UniProt Q9ESQ4); assay: FLIPR calcium mobilization assay, rat NMUR2; type: cell-based; design: expressed in transfected cells; host or cells: FLP-In CHO or HEK-293 FLP-In cells (pcDNA5)
rat NMUR2, sequence (Q9ESQ4 whole entry): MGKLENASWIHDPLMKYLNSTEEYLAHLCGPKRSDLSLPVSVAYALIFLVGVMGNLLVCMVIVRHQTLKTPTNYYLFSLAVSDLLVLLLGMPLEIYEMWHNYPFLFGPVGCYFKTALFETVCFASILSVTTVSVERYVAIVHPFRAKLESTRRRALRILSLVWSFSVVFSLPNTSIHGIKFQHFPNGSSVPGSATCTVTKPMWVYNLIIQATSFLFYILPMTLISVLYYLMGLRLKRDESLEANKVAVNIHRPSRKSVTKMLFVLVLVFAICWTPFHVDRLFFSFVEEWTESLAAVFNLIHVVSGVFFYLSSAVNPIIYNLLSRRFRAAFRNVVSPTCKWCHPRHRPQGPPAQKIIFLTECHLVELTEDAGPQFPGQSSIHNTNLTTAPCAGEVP
Text: as §1, §2, §3, §4
In vitro responses of Neuromedin U receptor agonists (NMU1 to NMU25) in the FLIPR assay for human (Table 3), mouse (Table 4) and rat (Table 5) NMUR1 and NMUR2. EC50s are reported in nM values. Percent activity refers to the maximum response at 1 μM compared to the hNMU-25 response at the same concentration. NT=not tested.

[1] = maximum response at 1 μM compared to hNMU-25, rat NMUR2

## CC(C)C[C@H](NC(=O)[C@H](Cc1c[nH]c2ccccc12)NC(=O)[C@H](Cc1ccccc1)NC(=O)CNC(=O)[C@H](CCCNC(=N)N)NC(=O)[C@H](CO)NC(=O)[C@H](CCC(N)=O)NC(=O)[C@H](CO)NC(=O)[C@H](C)NC(=O)[C@H](Cc1ccccc1)NC(=O)[C@@H]1CCCN1C(=O)[C@H](CO)NC(=O)[C@H](CCC(N)=O)NC(=O)[C@H](Cc1ccccc1)NC(=O)[C@H](CCC(=O)O)NC(=O)[C@H](CCC(=O)O)NC(=O)[C@H](CC(=O)O)NC(=O)[C@@H](NC(=O)[C@H](CCCNC(=N)N)NC(=O)[C@@H](N)Cc1ccccc1)C(C)C)C(=O)N[C@@H](Cc1ccccc1)C(=O)N[C@@H](CCCNC(=N)N)C(=O)N[C@@H](C)C(=O)N[C@@H](CCCCNC(=N)N)C(=O)N[C@@H](CC(N)=O)C(N)=O [Agonist P] (H-FRVDEEFQSPFASQSRGFWLFRA[hArg]N-NH2; N-terminus assumed)
hNMUR1; Table 9, HEK-hR1, functional
  % Activity: 11%

## CCCC[C@@H](NC(=O)[C@H](CCCNC(=N)N)NC(=O)[C@@H]1CCCN1C(=O)[C@H](CCCNC(=N)N)NC(=O)[C@H](Cc1ccccc1)NC(=O)[C@H](CC(C)C)NC(=O)[C@H](Cc1c[nH]c2ccccc12)NC(=O)[C@H](Cc1ccccc1)NC(=O)CNC(=O)[C@H](CCCNC(=N)N)NC(=O)[C@H](CO)NC(=O)[C@H](CCC(N)=O)NC(=O)[C@H](CO)NC(=O)[C@H](C)NC(=O)[C@H](Cc1ccccc1)NC(=O)[C@@H]1CCCN1C(=O)[C@H](CO)NC(=O)[C@H](CCC(N)=O)NC(=O)[C@H](Cc1ccccc1)NC(=O)[C@H](CCC(=O)O)NC(=O)[C@H](CCC(=O)O)NC(=O)[C@H](CC(=O)O)NC(=O)[C@@H](NC(=O)[C@H](CCCNC(=N)N)NC(=O)[C@@H](N)Cc1ccccc1)C(C)C)C(N)=O [Agonist Q] (H-FRVDEEFQSPFASQSRGFWLFRPR[dNle]-NH2)
hNMUR1; Table 9, HEK-hR1, functional
  % Activity: 0%
  EC50: > 1000 nM

## CCN1C(=O)CC(SC[C@H](NC(C)=O)C(=O)NCC(=O)N[C@@H](Cc2ccc(O)cc2)C(=O)N[C@@H](Cc2ccccc2)C(=O)N[C@@H](CC(C)C)C(=O)N[C@@H](Cc2ccccc2)C(=O)N[C@@H](CCCNC(=N)N)C(=O)N2CCC[C@H]2C(=O)N[C@@H](CCCNC(=N)N)C(=O)N[C@@H](CC(N)=O)C(N)=O)C1=O (some centres unmarked) [NMU6] (Ac-C(Succinimide(1-Et,3-yl))GYFLFRPRN-NH2)
Rat NMUR2; [1]
  % Activity: 100%

## CCN1C(=O)CC(SC[C@H](NC(C)=O)C(=O)N[C@@H](Cc2ccccc2)C(=O)N[C@@H](CCCNC(=N)N)C(=O)N[C@H](C(=O)N[C@@H](CC(=O)O)C(=O)N[C@@H](CCC(=O)O)C(=O)N[C@@H](CCC(=O)O)C(=O)N[C@@H](Cc2ccccc2)C(=O)N[C@@H](CCC(N)=O)C(=O)N[C@@H](CO)C(=O)N2CCC[C@H]2C(=O)N[C@@H](Cc2ccccc2)C(=O)N[C@@H](C)C(=O)N[C@@H](CO)C(=O)N[C@@H](CCC(N)=O)C(=O)N[C@@H](CO)C(=O)N[C@@H](CCCNC(=N)N)C(=O)NCC(=O)N[C@@H](Cc2ccc(O)cc2)C(=O)N[C@@H](Cc2ccccc2)C(=O)N[C@@H](CC(C)C)C(=O)N[C@@H](Cc2ccccc2)C(=O)N[C@@H](CCCNC(=N)N)C(=O)N2CCC[C@H]2C(=O)N[C@@H](CCCNC(=N)N)C(=O)N[C@@H](CC(N)=O)C(N)=O)C(C)C)C1=O (some centres unmarked) [NMU8] (Ac-C(Succinimide(1-Et,3-yl))FRVDEEFQSPFASQSRGYFLFRPRN-NH2)
Rat NMUR2; [1]
  % Activity: 94.7%

## CC(=O)N[C@@H](CSCC(=O)O[C@H]1CC[C@@]2(C)C(=CC[C@H]3[C@@H]4CC[C@H]([C@H](C)CCCC(C)C)[C@@]4(C)CC[C@@H]32)C1)C(=O)NCC(=O)N[C@@H](Cc1ccc(O)cc1)C(=O)N[C@@H](Cc1ccccc1)C(=O)N[C@@H](CC(C)C)C(=O)N[C@@H](Cc1ccccc1)C(=O)N[C@@H](CCCNC(=N)N)C(=O)N1CCC[C@H]1C(=O)N[C@@H](CCCNC(=N)N)C(=O)N[C@@H](CC(N)=O)C(N)=O [NMU11] (Ac-C(X1)GYFLFRPRN-NH2)
Rat NMUR2; [1]
  % Activity: 33.2%

## CCN1C(=O)CC(SC[C@H](NC(C)=O)C(=O)N[C@@H](Cc2ccccc2)C(=O)N[C@@H](CCCNC(=N)N)C(=O)N[C@H](C(=O)N[C@@H](CC(=O)O)C(=O)N[C@@H](CCC(=O)O)C(=O)N[C@@H](CCC(=O)O)C(=O)N[C@@H](Cc2ccccc2)C(=O)N[C@@H](CCC(N)=O)C(=O)N[C@@H](CO)C(=O)N2CCC[C@H]2C(=O)N[C@@H](Cc2ccccc2)C(=O)N[C@@H](C)C(=O)N[C@@H](CO)C(=O)N[C@@H](CCC(N)=O)C(=O)N[C@@H](CO)C(=O)N[C@@H](CCCNC(=N)N)C(=O)NCC(=O)N[C@@H](Cc2ccc(O)cc2)C(=O)N[C@@H](Cc2ccccc2)C(=O)N[C@H](C)C(=O)N[C@@H](Cc2c[nH]c3ccccc23)C(=O)N[C@@H](CCCNC(=N)N)C(=O)N2CCC[C@H]2C(=O)N[C@@H](CCCNC(=N)N)C(=O)N[C@@H](CC(N)=O)C(N)=O)C(C)C)C1=O (some centres unmarked) [NMU13] (Ac-C(Succinimide(1-Et,3-yl))FRVDEEFQSPFASQSRGYF[dA]WRPRN-NH2)
Rat NMUR2; FLIPR, rat NMUR2
  EC50: > 1000 nM
Rat NMUR2; functional data, rat R2
  IC50: > 1000 nM
Rat NMUR2; functional, rat R2, relative to native hNMU responses
  % Activity: 24%
Rat NMUR2; [1]
  % Activity: 0.0%

## CC(C)C[C@H](NC(=O)[C@H](Cc1ccccc1)NC(=O)[C@@H](N)Cc1ccc(O)cc1)C(=O)N[C@@H](Cc1ccccc1)C(=O)N[C@@H](CCCNC(=N)N)C(=O)N1CCC[C@H]1C(=O)N[C@@H](CCCNC(=N)N)C(=O)N[C@@H](CC(N)=O)C(N)=O [NMU-8, reference compound]
hNMUR1; Table 9, HEK-hR1, functional
  % Activity: 100%

## Ac-FFRPRN-NH2 [Agonist F, Ac-FFRPRN-CONH2]
hNMUR1; Table 8, HEK-hR1, functional
  % Activity: 96%
  IC50: 42 nM

## FALFRPRN-NH2 [Agonist N]
hNMUR1; Table 9, HEK-hR1, functional
  % Activity: 87%

## H-FRVDEEFQSPFASQSRGYFWRPRN-NH2 [Agonist G]
hNMUR1; Table 8, HEK-hR1, functional
  % Activity: 91%

## H-FWLFRARN-NH2 [Agonist L]
hNMUR1; Table 9, HEK-hR1, functional
  % Activity: 74%
  EC50: > 1000 nM

## H-YFGWRPRN-NH2 [Agonist C]
hNMUR1; Table 8, HEK-hR1, functional
  % Activity: 87%
  IC50: 1.1 nM

## WALFRARN-NH2 [Agonist M]
hNMUR1; Table 9, HEK-hR1, functional
  % Activity: 0%
  EC50: > 1000 nM

## YFWRPRN-NH2 [Agonist A, YFWRPRN-CONH2]
hNMUR1; Table 8, HEK-hR1, functional
  % Activity: 92%
  IC50: 2.7 nM
